Activity calls are given as the source filed them. How the calls were made is not given here.
System: CCRIS mutagenicity, Ames/micronucleus/aberration tests
Test: CCRIS mutagenicity studies
[1] = Test System: AMES SALMONELLA TYPHIMURIUM, Strain/Indicator: TA1535, Metabolic Activation: NONE, Method: PREINCUBATION
[2] = Test System: AMES SALMONELLA TYPHIMURIUM, Strain/Indicator: TA1535, Metabolic Activation: NONE, Method: STANDARD PLATE
[3] = Test System: MOUSE LYMPHOMA, Strain/Indicator: L5178Y (TK+/TK-), Metabolic Activation: NONE, Method: SUSPENSION/PLATE
[4] = Test System: AMES SALMONELLA TYPHIMURIUM, Strain/Indicator: TA98, Metabolic Activation: NONE, Method: STANDARD PLATE
[5] = Test System: AMES SALMONELLA TYPHIMURIUM, Strain/Indicator: TA98, Metabolic Activation: RAT, LIVER, S-9, AROCLOR 1254, Method: STANDARD PLATE
[6] = Test System: AMES SALMONELLA TYPHIMURIUM, Strain/Indicator: TA100, Metabolic Activation: NONE, Method: STANDARD PLATE
[7] = Test System: AMES SALMONELLA TYPHIMURIUM, Strain/Indicator: TA100, Metabolic Activation: RAT, LIVER, S-9, AROCLOR 1254, Method: STANDARD PLATE
[8] = Test System: AMES SALMONELLA TYPHIMURIUM, Strain/Indicator: TA100, Metabolic Activation: NONE, Method: PREINCUBATION

In the case of `NCCCNCCCCN(CCCN)/[N+]([O-])=N/O`, the mutagenic call [1] is reported as “active; positive”, the mutagenic call [2] is reported as “active; positive” and the mutagenic call (Test System: CHINESE HAMSTER OVARY, Strain/Indicator: CHO-K1-BH4 (HGPRT)/6-THIOGUANINE, Metabolic Activation: NONE) is reported as “active; positive”. For the same compound, the mutagenic call (Test System: E. COLI, Strain/Indicator: WP2 UVRA (PKM101), Metabolic Activation: NONE, Method: STANDARD PLATE) was “active; positive”, the mutagenic call (Test System: E. COLI, Strain/Indicator: WP2 UVRA/OXYR (PKM101), Metabolic Activation: NONE, Method: STANDARD PLATE) was “active; positive” and the mutagenic call (Test System: E. COLI, Strain/Indicator: WP2 UVRA/UMUDC, Metabolic Activation: NONE, Method: STANDARD PLATE) was “active; positive”. The mutagenic call (Test System: E. COLI, Strain/Indicator: WP2 UVRA, Metabolic Activation: NONE, Method: STANDARD PLATE) was “active; positive” and the mutagenic call [3] was “active; positive”.
With `Cc1ccc2nc(-c3ccc(N)cc3)sc2c1` the mutagenic call (Test System: AMES SALMONELLA TYPHIMURIUM, Strain/Indicator: 1537, Metabolic Activation: NONE, Method: STANDARD PLATE) was “inactive; negative”, the mutagenic call (Test System: AMES SALMONELLA TYPHIMURIUM, Strain/Indicator: TA98, Metabolic Activation: HAMSTER, LIVER, S-9, AROCLOR 1254, Method: STANDARD PLATE) was “active; positive” and the mutagenic call [4] was “inactive; negative”. The mutagenic call [5] was “active; positive”, the mutagenic call (Test System: AMES SALMONELLA TYPHIMURIUM, Strain/Indicator: TA100, Metabolic Activation: HAMSTER, LIVER, S-9, AROCLOR 1254, Method: STANDARD PLATE) was “active; positive” and the mutagenic call [6] was “inactive; negative”. The mutagenic call [7] was “active; positive”, the mutagenic call (Test System: AMES SALMONELLA TYPHIMURIUM, Strain/Indicator: TA1535, Metabolic Activation: HAMSTER, LIVER, S-9, AROCLOR 1254, Method: STANDARD PLATE) was “inactive; negative” and the mutagenic call (Test System: AMES SALMONELLA TYPHIMURIUM, Strain/Indicator: TA1535, Metabolic Activation: RAT, LIVER, S-9, AROCLOR 1254, Method: STANDARD PLATE) was “inactive; negative”. For the same compound, the mutagenic call (Test System: AMES SALMONELLA TYPHIMURIUM, Strain/Indicator: TA1537, Metabolic Activation: HAMSTER, LIVER, S-9, AROCLOR 1254, Method: STANDARD PLATE) was “active; positive”, the mutagenic call (Test System: AMES SALMONELLA TYPHIMURIUM, Strain/Indicator: TA1537, Metabolic Activation: RAT, LIVER, S-9, AROCLOR 1254, Method: STANDARD PLATE) was “active; positive” and the mutagenic call (Test System: AMES SALMONELLA TYPHIMURIUM, Strain/Indicator: TA1538, Metabolic Activation: HAMSTER, LIVER, S-9, AROCLOR 1254, Method: STANDARD PLATE) was “active; positive”. The mutagenic call (Test System: AMES SALMONELLA TYPHIMURIUM, Strain/Indicator: TA1538, Metabolic Activation: NONE, Method: STANDARD PLATE) was “inactive; negative”, the mutagenic call (Test System: AMES SALMONELLA TYPHIMURIUM, Strain/Indicator: TA1538, Metabolic Activation: RAT, LIVER, S-9, AROCLOR 1254, Method: STANDARD PLATE) was “active; positive” and the mutagenic call [3] was “active; positive. reevaluation of results: positive”. The mutagenic call (Test System: MOUSE LYMPHOMA, Strain/Indicator: L5178Y (TK+/TK-), Metabolic Activation: RAT, LIVER, S-9, AROCLOR 1254, Method: SUSPENSION/PLATE) was “active; positive. reevaluation of results: positive”.
With `COC12OOC1(C)Oc1ccccc12` (stereo unspecified) the mutagenic call [8] was “active; positive”.
With `C=COc1ccccc1` the mutagenic call [4] was “inactive; negative”, the mutagenic call (Test System: AMES SALMONELLA TYPHIMURIUM, Strain/Indicator: TA98, Metabolic Activation: RAT LIVER MICROSOMES, Method: STANDARD PLATE) was “inactive; negative” and the mutagenic call [2] was “inactive; negative”. The mutagenic call (Test System: AMES SALMONELLA TYPHIMURIUM, Strain/Indicator: TA1535, Metabolic Activation: RAT LIVER MICROSOMES, Method: STANDARD PLATE) was “active; positive”.
With `CC1(C)[C@H](C(=O)O[C@H](C#N)c2cccc(Oc3ccccc3)c2)[C@@H]1C(Br)C(Br)(Br)Br` (stereo partly specified) the mutagenic call (End Point: In vivo chromosomal aberrations, Test System: Bone marrow cells, Species: Rat, Strain/Sex: Sprague Dawley CD, Route: Gavage) was “inactive; negative”, the mutagenic call (Test System: Ames Salmonella typhimurium, Strain/Indicator: TA98, Metabolic Activation: None) was “inactive; negative (precipitation above 100 ug/plate)” and the mutagenic call (Test System: Ames Salmonella typhimurium, Strain/Indicator: TA98, Metabolic Activation: Rat, Liver, S-9, Aroclor 1254) was “inactive; negative (precipitation above 100 ug/plate)”. The mutagenic call (Test System: Ames Salmonella typhimurium, Strain/Indicator: TA100, Metabolic Activation: None) was “inactive; negative (precipitation above 100 ug/plate)”, the mutagenic call (Test System: Ames Salmonella typhimurium, Strain/Indicator: TA100, Metabolic Activation: Rat, Liver, S-9, Aroclor 1254) was “inactive; negative (precipitation above 100 ug/plate)” and the mutagenic call (Test System: Ames Salmonella typhimurium, Strain/Indicator: TA1535, Metabolic Activation: None) was “inactive; negative (precipitation above 100 ug/plate)”. For the same compound, the mutagenic call (Test System: Ames Salmonella typhimurium, Strain/Indicator: TA1535, Metabolic Activation: Rat, Liver, S-9, Aroclor 1254) was “inactive; negative (precipitation above 100 ug/plate)”, the mutagenic call (Test System: Ames Salmonella typhimurium, Strain/Indicator: TA1537, Metabolic Activation: None) was “inactive; negative (precipitation above 100 ug/plate)” and the mutagenic call (Test System: Ames Salmonella typhimurium, Strain/Indicator: TA1537, Metabolic Activation: Rat, Liver, S-9, Aroclor 1254) was “inactive; negative (precipitation above 100 ug/plate)”. For the same compound, the mutagenic call (Test System: Ames Salmonella typhimurium, Strain/Indicator: TA1538, Metabolic Activation: None) was “inactive; negative (precipitation above 100 ug/plate)” and the mutagenic call (Test System: Ames Salmonella typhimurium, Strain/Indicator: TA1538, Metabolic Activation: Rat, Liver, S-9, Aroclor 1254) was “inactive; negative (precipitation above 100 ug/plate)”.
In the case of `CCCBr`, the mutagenic call (End Point: In vitro micronucleus, Test System: Chinese Hamster Ovary (CHO-WBL) cells, Metabolic Activation: None) is reported as “inactive; negative”, the mutagenic call (Test System: AMES SALMONELLA TYPHIMURIUM, Strain/Indicator: TA98, Metabolic Activation: NONE, Method: PREINCUBATION) is reported as “inactive; negative” and the mutagenic call (Test System: AMES SALMONELLA TYPHIMURIUM, Strain/Indicator: TA98, Metabolic Activation: RAT LIVER S-9, PHENOBARBITAL AND BETA-NAPHTHOFLAVONE, Method: PREINCUBATION) is reported as “inactive; negative”. For the same compound, the mutagenic call [8] was “inactive; negative”, the mutagenic call (Test System: AMES SALMONELLA TYPHIMURIUM, Strain/Indicator: TA100, Metabolic Activation: RAT LIVER S-9, PHENOBARBITAL AND BETA-NAPHTHOFLAVONE, Method: PREINCUBATION) was “inactive; negative” and the mutagenic call (Test System: AMES SALMONELLA TYPHIMURIUM, Strain/Indicator: TA102, Metabolic Activation: NONE, Method: PREINCUBATION) was “inactive; negative”. The mutagenic call (Test System: AMES SALMONELLA TYPHIMURIUM, Strain/Indicator: TA102, Metabolic Activation: RAT LIVER S-9, PHENOBARBITAL AND BETA-NAPHTHOFLAVONE, Method: PREINCUBATION) was “inactive; negative”, the mutagenic call (Test System: AMES SALMONELLA TYPHIMURIUM, Strain/Indicator: TA104, Metabolic Activation: NONE, Method: PREINCUBATION) was “inactive; negative” and the mutagenic call (Test System: AMES SALMONELLA TYPHIMURIUM, Strain/Indicator: TA104, Metabolic Activation: RAT LIVER S-9, PHENOBARBITAL AND BETA-NAPHTHOFLAVONE, Method: PREINCUBATION) was “inactive; negative”. For the same compound, the mutagenic call [1] was “inactive; negative”, the mutagenic call (Test System: AMES SALMONELLA TYPHIMURIUM, Strain/Indicator: TA1535, Metabolic Activation: RAT LIVER S-9, PHENOBARBITAL AND BETA-NAPHTHOFLAVONE, Method: PREINCUBATION) was “inactive; negative” and the mutagenic call (Test System: AMES SALMONELLA TYPHIMURIUM, Strain/Indicator: TA1537, Metabolic Activation: NONE, Method: PREINCUBATION) was “inactive; negative”. For the same compound, the mutagenic call (Test System: AMES SALMONELLA TYPHIMURIUM, Strain/Indicator: TA1537, Metabolic Activation: RAT LIVER S-9, PHENOBARBITAL AND BETA-NAPHTHOFLAVONE, Method: PREINCUBATION) was “inactive; negative”, the mutagenic call (Test System: E.COLI, Strain/Indicator: WP2UVRA/PKM101, Metabolic Activation: NONE, Method: PREINCUBATION) was “inactive; negative” and the mutagenic call (Test System: E.COLI, Strain/Indicator: WP2UVRA/PKM101, Metabolic Activation: RAT LIVER S-9, PHENOBARBITAL AND BETA-NAPHTHOFLAVONE, Method: PREINCUBATION) was “inactive; negative”. The mutagenic call (Test System: E.COLI, Strain/Indicator: WP2UVRA, Metabolic Activation: NONE, Method: PREINCUBATION) was “inactive; negative” and the mutagenic call (Test System: E.COLI, Strain/Indicator: WP2UVRA, Metabolic Activation: RAT LIVER S-9, PHENOBARBITAL AND BETA-NAPHTHOFLAVONE, Method: PREINCUBATION) was “inactive; negative”.
`O=Cc1cccc(-c2ccccc2)c1` was tested, and the mutagenic call [4] was “inactive; negative”, the mutagenic call [5] was “inactive; negative” and the mutagenic call [6] was “inactive; negative”. For the same compound, the mutagenic call [7] was “inactive; negative”.
